In ChEMBL document CHEMBL3045015, “Synthesis and physiological evaluation of new N-nitroso-2,6-dicarbethoxy-3,5-diaryltetrahydro-1,4-thiazine-1,1-dioxides” (Med Chem Res, 2012):

Assays:
[1] = test system: Streptococcus pyogenes; test: Ratio of compound IZ to amikacin IZ for Streptococcus pyogenes MTCC 389 at 10 ug/ml by disk diffusion method; type: functional
[2] = test system: Staphylococcus aureus; test: Ratio of compound IZ to amikacin IZ for Staphylococcus aureus MTCC 96 at 10 ug/ml by disk diffusion method; type: functional
[3] = test system: Mus musculus; test: Acute toxicity in Mus musculus (mouse) at 300 mg/kg; type: organism-based; set-up: dose 300 mg/kg; conditions: in vivo
[4] = test system: Candida albicans; test: Antifungal activity against Candida albicans MTCC 227 at 10 ug/ml by disk diffusion method; type: functional; conditions: read-out: IZ
[5] = test system: Pseudomonas aeruginosa; test: Antibacterial activity against Pseudomonas aeruginosa […] at 10 ug/ml by disk diffusion method; type: functional; conditions: read-out: IZ
[6] = test system: Escherichia coli; test: Antibacterial activity against Escherichia coli MTCC 722 at 10 ug/ml by disk diffusion method; type: functional; conditions: read-out: IZ
[7] = test system: Streptococcus pyogenes; test: Antibacterial activity against Streptococcus pyogenes MTCC 389 at 10 ug/ml by disk diffusion method; type: functional; conditions: read-out: IZ
[8] = test system: Staphylococcus aureus; test: Antibacterial activity against Staphylococcus aureus MTCC 96 at 10 ug/ml by disk diffusion method; type: functional; conditions: read-out: IZ
[9] = test system: Candida albicans; test: Ratio of compound IZ to nystatin IZ for Candida albicans MTCC 227 at 10 ug/ml by disk diffusion method; type: functional
[10] = test system: Pseudomonas aeruginosa; test: Ratio of compound IZ to amikacin IZ for Pseudomonas aeruginosa […] at 10 ug/ml by disk diffusion method; type: functional
[11] = test system: Escherichia coli; test: Ratio of compound IZ to amikacin IZ for Escherichia coli MTCC 722 at 10 ug/ml by disk diffusion method; type: functional

Structure (SMILES)	Ratio [1]	Ratio [2]	Activity [3]	zone of inhibition at 10 µg/mL [4]	zone of inhibition at 10 µg/mL [5]	zone of inhibition at 10 µg/mL [6]	zone of inhibition at 10 µg/mL [7]	zone of inhibition at 10 µg/mL [8]	Ratio [9]	Ratio [10]	Ratio [11]
CCOC(=O)C1C(c2ccc[nH]2)N(N=O)C(c2ccc[nH]2)C(C(=O)OCC)S1(=O)=O (centres undefined)	0.7	0.72	Non-toxic	11 mm	12 mm	11 mm	14 mm	13 mm	0.58	0.71	0.65
CCOC(=O)C1C(c2cc3ccccc3nc2Cl)N(N=O)C(c2cc3ccccc3nc2Cl)C(C(=O)OCC)S1(=O)=O (centres undefined)	0.6	0.78	Non-toxic	18 mm	10 mm	9 mm	12 mm	14 mm	0.95	0.59	0.53
CCOC(=O)C1C(c2c[nH]c3ccccc23)N(N=O)C(c2c[nH]c3ccccc23)C(C(=O)OCC)S1(=O)=O (centres undefined)	0.45	0.44	Non-toxic	15 mm	11 mm	12 mm	9 mm	8 mm	0.79	0.65	0.71
CCOC(=O)C1C(c2ccc(OC)c(OC)c2)N(N=O)C(c2ccc(OC)c(OC)c2)C(C(=O)OCC)S1(=O)=O (centres undefined)	0.4	0.67	Non-toxic	14 mm	11 mm	13 mm	8 mm	12 mm	0.74	0.65	0.76
CCOC(=O)C1C(c2ccccc2)N(N=O)C(c2ccccc2)C(C(=O)OCC)S1(=O)=O (centres undefined)	0.75	0.61	Non-toxic	13 mm	13 mm	12 mm	15 mm	11 mm	0.69	0.76	0.71
CCOC(=O)C1C(c2ccccc2Cl)N(N=O)C(c2ccccc2Cl)C(C(=O)OCC)S1(=O)=O (centres undefined)	0.5	0.5	Non-toxic	16 mm	12 mm	13 mm	10 mm	9 mm	0.84	0.71	0.76
CCOC(=O)C1C(c2cccc(Cl)c2)N(N=O)C(c2cccc(Cl)c2)C(C(=O)OCC)S1(=O)=O (centres undefined)	0.4	0.61	Non-toxic	15 mm	10 mm	14 mm	8 mm	11 mm	0.79	0.59	0.82
CCOC(=O)C1C(c2ccc(Cl)cc2)N(N=O)C(c2ccc(Cl)cc2)C(C(=O)OCC)S1(=O)=O (centres undefined)	0.5	0.56	Non-toxic	16 mm	12 mm	13 mm	10 mm	10 mm	0.84	0.71	0.76
CCOC(=O)C1C(c2cccc([N+](=O)[O-])c2)N(N=O)C(c2cccc([N+](=O)[O-])c2)C(C(=O)OCC)S1(=O)=O (centres undefined)	0.45	0.67	Non-toxic	13 mm	15 mm	14 mm	9 mm	12 mm	0.69	0.88	0.82
